The values that follow come from the METLIN SMRT retention time set (Domingo-Almenara et al. 2019).

The data set can be described thus: gradient 5% acetonitrile 3 min, to 50% in 2 min, to 85% in 15 min, held 3 min, 100 µL/min. The settings on record: column: Zorbax Extend-C18 2.1 x 50 mm; eluents: water / acetonitrile, 0.1% formic acid. The gist of the method:
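Each retention time is based on an adduct peak selected computationally and verified by manual inspection. Measurements used HPLC–quadrupole time-of-flight mass spectrometry in positive and negative ionization mode on mixtures of ~100 pure standards. Chromatography ran on a Zorbax Extend-C18 column (2.1 × 50 mm, 1.8 μm) at 100 μL/min with water and acetonitrile, each containing 0.1% formic acid, and dead and dwell volumes of 40 μL and 900 μL.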
As to `CCN1C(=O)c2cccnc2Sc2cc(CNC(=O)C3CCN(C(C)=O)CC3)ccc21`, the RP-LC retention time was determined as 638 s.

Regarding `O=C(COc1ccc2ccccc2c1)NCC1CCN(C2CCCC2)CC1`, the RP-LC retention time stood at 590 s.

Regarding `Cc1ccc(C)c(C(=O)N2CCC(c3cc4n(n3)CCCN(C)C4=O)CC2)c1`, the RP-LC retention time was 690 s.

`COC(=O)c1ccc(N2C=C(C#N)S(=O)(=O)c3cc(F)ccc32)cc1` came in with an RP-LC retention time of 847 s.

For the compound `CCOc1cccc(C2CC(=O)NC3=C2C(=O)C(C(=O)OC)C(C)C3)c1` (configuration not stated), the RP-LC retention time amounted to 750 s.

The compound `CC(C)n1c(N2CCN(C(=O)c3[nH]nc4c3CCc3ccccc3-4)CC2)cc(=O)n(C(C)C)c1=O` yielded an RP-LC retention time of 872 s.

For the compound `Cc1ccc(NC(=O)Nc2ccc3nnc(C)n3c2)cc1`, the RP-LC retention time is 673 s.

For `O=C(C1CCCN(c2ncnc3c2nc2n3CCCCC2)C1)N1CCN(C2CCCCC2)CC1` (configuration not stated), the RP-LC retention time was determined as 604 s.

Compound `Cc1cccc(N2CCN(C(=O)CN3C(=O)CN(C)C(=O)c4ccccc43)CC2)c1C` yielded an RP-LC retention time of 812 s.

The compound `O=S(=O)(c1ccc2nncn2c1)N(Cc1ccccc1F)c1cc(F)cc(F)c1` showed an RP-LC retention time of 874 s.

Turning to `O=C(Cn1c2c(c(=O)n(C3CCCCC3)c1=O)CCC2)NCc1ccco1`, the RP-LC retention time came out at 764 s.

`Cc1sc(-c2nnc(C(C)C)o2)cc1NC(=O)C1CCC1`: the RP-LC retention time turned out to be 892 s.

Take `CCOc1ccc(-c2ccc(OCCNS(=O)(=O)c3ccccc3Cl)nn2)cc1`: the RP-LC retention time is 891 s.

`COCCNC(=O)Cn1c(C(F)(F)F)nc2cc3c(cc21)OCCO3` gave an RP-LC retention time of 641 s.

Take `O=C(c1cccs1)N1CCC(c2noc(-c3ccncc3)n2)C1` (configuration not stated): the RP-LC retention time was 685 s.

For the compound `Clc1ccc(OCc2nn3c(-c4ccccn4)nnc3s2)cc1`, the RP-LC retention time is 832 s.

Compound `Cc1ccc(C)c(NC(=O)Cn2c(=O)n(-c3ccc(F)cc3)c(=O)c3c2cc(C)n3C)c1` yielded an RP-LC retention time of 931 s.

For `Cc1nn(-c2ccccc2)c(C)c1S(=O)(=O)N1CCC(C(=O)NCc2ccccc2)CC1`, the RP-LC retention time was determined as 886 s.

The compound `O=C(Nc1cccc(Cl)c1)N1CCN(Cc2nc3ccccc3o2)CC1` registered an RP-LC retention time of 728 s.

The compound `O=c1n(Cc2c(F)cccc2Cl)nc2c(S(=O)(=O)N3CCCC3)cccn12` registered an RP-LC retention time of 840 s.

Turning to `CCOc1ccc(C2c3c(oc4ccc(C)cc4c3=O)C(=O)N2CCCN2CCOCC2)cc1` (configuration not stated), the RP-LC retention time came to 812 s.

Regarding `Cc1cccc(Nc2nc(C(=O)NCc3ccc(C)o3)nc3ccccc23)c1`, the RP-LC retention time stood at 856 s.

On to `COc1ccc(NC(=O)N2CCC(N3C[C@H]4C[C@H](C3)[C@H]3CCCC(=O)N3C4)CC2)cc1OC`, for which the RP-LC retention time came out at 611 s.

Consider `CCN(CC)CCCNC(=O)C1CCC(=O)N(c2ccc(OC)cc2)C1c1ccc(F)cc1` (configuration not stated), for which the RP-LC retention time was 614 s.

In turn, `COc1cc([C@@H]2c3cc4c(cc3[C@H](O)C3COC(=O)[C@@H]32)OCO4)cc(OC)c1OC` (some centres not stated) yielded an RP-LC retention time of 811 s.

As to `CCCCn1nnnc1NCc1ccc2c(c1)n(C)c(=O)n2C`, the RP-LC retention time is 647 s.

Consider `COC(=O)c1ncn2c1C(=O)N(c1cccc(C)c1C)C(C)(C(=O)NC1CCCC1)C2` (configuration not stated), for which the RP-LC retention time was 734 s.

`CCN(CC)C(=O)c1cnc2snc(C)c2c1N1CCC(C(=O)Nc2cc(C)c(Cl)cc2OC)CC1`: the RP-LC retention time was determined as 1070 s.

For the compound `CCC(c1cccs1)N1C(=O)[C@H]2CN(S(=O)(=O)c3cc(F)ccc3F)C[C@H]2C1=O` (some centres not stated), the RP-LC retention time is 936 s.

In turn, `O=C(Cc1cccs1)N1CCN(C(=O)c2cc3ccccc3[nH]2)CC1` gave an RP-LC retention time of 767 s.

`Cc1nc(-c2ccc(C(=O)N3CCCC3)cc2)no1`: the RP-LC retention time came to 675 s.

`COCCN1C(=O)c2ccccc2C(C(=O)NCc2ccc(F)cc2)C12CCCCC2` (configuration not stated) displayed an RP-LC retention time of 877 s.
